Our source for the TGI and GI50 values is PubChem BioAssay (NCI).

Where “and” joins values, the source holds several entries; their conditions need not be identical. Equal entries are not always repeated.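 In this assay, cells in 96-well plates receive the compound at five concentrations for 48 hours. Endpoints are linearly interpolated between the surrounding concentrations. Here, GI50 denotes the concentration required for 50% inhibition of growth. TGI: total growth inhibition.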 Where only a bound is given, the exact number is not on record here.

Among the test systems are IGROV1 ovarian; HCT-15 colon; OVCAR-4 ovarian; NCI-H226 lung; SF-295 CNS; CCRF-CEM leukemia; M19-MEL melanoma; HOP-62 NSCLC; DMS 114 small cell lung; U251 CNS; HCC-2998 colon.
Holding throughout (assay): inhibition of tumour cell growth, NCI panel, 48 h

In the case of `CC(C)C(N)=O`, the TGI in the test on IGROV1 ovarian, in the test on HCT-15 colon, in the test on OVCAR-4 ovarian, with NCI-H226 lung, in the test on SF-295 CNS and with CCRF-CEM leukemia was > 5000 µM in each case. The TGI in the test on M19-MEL melanoma, with HOP-62 NSCLC, with DMS 114 small cell lung and in the test with U251 CNS was > 5000 µM in each case.
For `CC(C)C1=CC23CCC4C(C)(C(=O)O)CCCC4(C)C2CC1C1C(=O)N(c2ccccc2)C(=O)C13` (centres undefined), the TGI in the test on IGROV1 ovarian is > 100 µM; in the test on HCT-15 colon, > 100 µM; in the test with OVCAR-4 ovarian, > 100 µM; in the test with NCI-H226 lung, 60.3 µM; in the test on SF-295 CNS it was > 100 µM; in the test with CCRF-CEM leukemia, > 100 µM. Also, the TGI with M19-MEL melanoma, in the test on HOP-62 NSCLC, in the test on DMS 114 small cell lung and with U251 CNS was > 100 µM throughout.
Turning to `CC(=O)NC1=C[C@@H]([C@H]2COC(C)(C)O2)OC1=O`, the TGI in the test on IGROV1 ovarian, in the test on HCT-15 colon, in the test with HCC-2998 colon, in the test on NCI-H226 lung, in the test on SF-295 CNS and with CCRF-CEM leukemia was > 100 µM in each case. For the same compound, the TGI in the test with M19-MEL melanoma, with HOP-62 NSCLC, with DMS 114 small cell lung and in the test with U251 CNS was > 100 µM in each case.
As to `O=C1CCCCCCCCCCC1CN1CCCCC1` (centres undefined), the TGI in the test with IGROV1 ovarian was > 100 µM; with HCT-15 colon, > 100 µM; with OVCAR-4 ovarian, > 100 µM; in the test on HCC-2998 colon it was > 100 µM; with NCI-H226 lung, 82.4 µM; with SF-295 CNS it was > 100 µM. In addition, the TGI with CCRF-CEM leukemia, with M19-MEL melanoma, in the test on HOP-62 NSCLC, with DMS 114 small cell lung and in the test with U251 CNS was > 100 µM in each case.
With `CC(C)(C)C(=O)OC12/C(=N/O)CCCCCC1c1ccccc12` (centres undefined), the TGI with IGROV1 ovarian was 29.6 µM; in the test on HCT-15 colon, 33 µM; in the test with OVCAR-4 ovarian, 33 µM; with HCC-2998 colon, > 100 µM; with NCI-H226 lung, 35.4 µM; with SF-295 CNS it was 29.2 µM. Besides, the TGI with CCRF-CEM leukemia was 64 µM; in the test on M19-MEL melanoma, 30.2 µM; with HOP-62 NSCLC, 37 µM; with DMS 114 small cell lung, 35.4 µM; in the test with U251 CNS it was 33.1 µM.
Take `CC1OC(OC2C(OC(=O)[C@]34CCC(C)(C)C[C@H]3C3=CC[C@@H]5[C@@]6(C)CC[C@H](OC7OC(C(=O)O)C(O)C(OC8OCC(O)C(O)C8O)C7O)C(C)(C)[C@@H]6CC[C@@]5(C)[C@]3(C)CC4)OCC(O)C2O)C(O)C(OC2OCC(O)C(O)C2O)C1OC1OCC(O)C(OC2OCC(O)C(O)C2O)C1O` (some centres undefined): the GI50 in the test on IGROV1 ovarian is 11.8 µM and 30.9 µM; in the test on NCI-H226 lung it was 9.29 µM and 19.1 µM; in the test with SF-295 CNS it was 5.98 µM and 15.4 µM; in the test with U251 CNS it was 10.9 µM and 24.2 µM. The TGI with IGROV1 ovarian was 32.6 µM and > 100 µM; in the test with HCT-15 colon, 32.2 µM and 42.4 µM; in the test with OVCAR-4 ovarian, 21.6 µM and 37.6 µM; with HCC-2998 colon, 4.13 µM and 11.9 µM; in the test on NCI-H226 lung, 24.6 µM and 39.7 µM; with SF-295 CNS, 18.9 µM and 30.2 µM. The TGI with CCRF-CEM leukemia was 32.1 µM and 31.4 µM; with HOP-62 NSCLC, 30.7 µM and 32.6 µM; in the test with U251 CNS, 24.8 µM and 62 µM.
Turning to `CCCCCCCCCCCCOCCCOP(=O)([O-])OCC[N+](C)(C)C`, the TGI with IGROV1 ovarian was 25.6 µM; with HCT-15 colon it was > 73.3 µM; with OVCAR-4 ovarian it was > 100 µM; in the test with HCC-2998 colon, 24.9 µM; in the test on NCI-H226 lung, 65.8 µM; in the test with SF-295 CNS, > 100 µM. Also, the TGI in the test on CCRF-CEM leukemia was 70.2 µM; in the test with M19-MEL melanoma, > 100 µM; in the test with HOP-62 NSCLC it was > 100 µM; with U251 CNS it was 47.7 µM.
Consider `N#Cc1c(-c2ccccc2)c(N=Nc2ccc(Cl)cc2)c(=O)n2c1[nH]c1ccccc12`, for which the TGI in the test on IGROV1 ovarian is > 100 µM; in the test on HCT-15 colon, > 100 µM; with OVCAR-4 ovarian it was 85.6 µM; in the test with HCC-2998 colon, > 100 µM; in the test on NCI-H226 lung it was > 100 µM; in the test on SF-295 CNS, > 100 µM. Further, the TGI with CCRF-CEM leukemia, in the test with HOP-62 NSCLC and with U251 CNS was > 100 µM each time.
With `C=C(OC1C(C)=C2C(C1OC(=O)CCCCCCC)C(C)(OC(C)=O)CC(OC(=O)CCC)C1(O)C2OC(=O)C1(C)O)/C(C)=C/C` (centres undefined), the TGI in the test with IGROV1 ovarian turned out to be 11 µM; in the test with HCT-15 colon, 15 µM; in the test on OVCAR-4 ovarian, 0.512 µM; in the test with HCC-2998 colon, 0.778 µM; in the test with NCI-H226 lung, 0.226 µM; with SF-295 CNS, 3.22 µM. Besides, the TGI with CCRF-CEM leukemia was determined as 6.24 µM; with M19-MEL melanoma, 1.29 µM; in the test on DMS 114 small cell lung it was 0.207 µM; in the test on U251 CNS it was 1.73 µM. Also, the GI50 in the test on HCT-15 colon was 0.0842 µM; in the test on OVCAR-4 ovarian it was < 0.0001 µM; in the test on HCC-2998 colon, < 0.0001 µM; with NCI-H226 lung, < 0.0001 µM; with SF-295 CNS it was < 0.0001 µM; in the test on CCRF-CEM leukemia it was < 0.0001 µM. Further, the GI50 in the test on HOP-62 NSCLC and in the test on U251 CNS was < 0.0001 µM each time.
`CCCCON1C[C@H](OC(C)=O)C(OC(C)=O)[C@H](OC(C)=O)C1` (some centres undefined): the TGI in the test with IGROV1 ovarian, in the test with HCT-15 colon, in the test on OVCAR-4 ovarian, in the test with HCC-2998 colon, in the test with NCI-H226 lung and with SF-295 CNS was > 100 µM each time. Further, the TGI with CCRF-CEM leukemia, in the test on HOP-62 NSCLC and with U251 CNS was > 100 µM each time.
As for `c1c[nH]c(C23C4C5C6C4C2C6C53)n1` (centres undefined), the TGI in the test with IGROV1 ovarian, in the test on HCT-15 colon, with OVCAR-4 ovarian, with HCC-2998 colon, in the test with NCI-H226 lung and in the test with SF-295 CNS was > 100 µM each time. In addition, the TGI in the test with CCRF-CEM leukemia, with HOP-62 NSCLC and in the test with U251 CNS was > 100 µM throughout.
Take `O=C1c2cc(Cl)ccc2NC(=NCCCl)C2CSCN12` (centres undefined): the TGI with IGROV1 ovarian, in the test with HCT-15 colon, with OVCAR-4 ovarian, with HCC-2998 colon, in the test with NCI-H226 lung and with SF-295 CNS was > 100 µM each time. Further, the TGI with CCRF-CEM leukemia, with HOP-62 NSCLC and in the test on U251 CNS was > 100 µM each time.
Turning to `CCOC(=O)C(Cc1cccn1C(=O)OC(C)(C)C)[N+](=O)[O-]` (centres undefined), the TGI in the test on IGROV1 ovarian amounted to 43.3 µM; with HCT-15 colon, 62.3 µM; in the test with OVCAR-4 ovarian it was 89 µM; in the test with HCC-2998 colon, 42.4 µM; in the test with NCI-H226 lung, 67.3 µM; in the test with SF-295 CNS, 99.4 µM. For the same compound, the values for the TGI with CCRF-CEM leukemia, in the test on HOP-62 NSCLC and with U251 CNS were 35.4 µM, 56.7 µM and 50.9 µM, respectively.
`O=C(NCc1cccc2ccccc12)N/N=C\c1ccc(Cl)cc1`: the TGI in the test on IGROV1 ovarian, with HCT-15 colon, in the test with OVCAR-4 ovarian, with HCC-2998 colon, in the test on NCI-H226 lung and in the test with SF-295 CNS was > 100 µM in each case. For the same compound, the TGI with CCRF-CEM leukemia, with HOP-62 NSCLC and in the test with U251 CNS was > 100 µM in each case.
In the case of `CCOC(=O)CC1(c2cccc3ccccc23)OC(=O)c2ccccc21` (centres undefined), the TGI in the test with IGROV1 ovarian, in the test with HCT-15 colon, in the test with OVCAR-4 ovarian, in the test with HCC-2998 colon, with NCI-H226 lung and in the test on SF-295 CNS was > 100 µM throughout. Further, the TGI in the test on CCRF-CEM leukemia, with M19-MEL melanoma, in the test on DMS 114 small cell lung and in the test with U251 CNS was > 100 µM in each case.
In the case of `O=C1OC(=O)c2cc(S(=O)(=O)c3ccc4c(c3)C(=O)OC4=O)ccc21`, the TGI with IGROV1 ovarian, in the test on HCT-15 colon, in the test with OVCAR-4 ovarian, in the test on HCC-2998 colon, in the test on NCI-H226 lung and in the test on SF-295 CNS was > 100 µM each time. The TGI in the test with CCRF-CEM leukemia, with HOP-62 NSCLC and in the test on U251 CNS was > 100 µM throughout.
Consider `Cc1cn([C@@H]2O[C@H](CO[Si](C)(C)C(C)(C)C)[C@]3(O[C@H]3C(=O)NN)[C@H]2O[Si](C)(C)C(C)(C)C)c(=O)[nH]c1=O`, for which the TGI in the test with IGROV1 ovarian is 18.6 µM; in the test with HCT-15 colon it was 14.8 µM; in the test with OVCAR-4 ovarian it was 22.6 µM; in the test with HCC-2998 colon it was 7.78 µM; in the test with NCI-H226 lung, 27.6 µM; in the test on SF-295 CNS, 22.2 µM. Further, the TGI in the test on CCRF-CEM leukemia was 5.43 µM; with HOP-62 NSCLC, 33.3 µM; with U251 CNS it was 14.5 µM.
With `CC(C)=CCC/C(C)=C/CC/C(C)=C/CC/C(=C/CC/C(C)=C\CC/C(C)=C/CC/C(C)=C/CC/C(C)=C/Cc1cc(O)ccc1O)CO`, the TGI is 10.9 µM in the test on IGROV1 ovarian; 39 µM in the test on HCT-15 colon; 19.7 µM with OVCAR-4 ovarian; > 42.1 µM in the test with HCC-2998 colon; 6.54 µM in the test with NCI-H226 lung; 5.85 µM in the test on SF-295 CNS. For the same compound, the results for the TGI with CCRF-CEM leukemia, with HOP-62 NSCLC and in the test with U251 CNS were > 30.7 µM, 41.3 µM and > 28.5 µM, respectively.
Take `c1csc(C[N+]23CN4CN(CN(C4)C2)C3)c1`: the TGI in the test with IGROV1 ovarian is 70.2 µM; in the test with HCT-15 colon, 77.2 µM; in the test with OVCAR-4 ovarian it was 49 µM; with HCC-2998 colon it was 34.1 µM; with NCI-H226 lung, > 100 µM; in the test with SF-295 CNS, > 100 µM. The TGI in the test with CCRF-CEM leukemia came to 44.9 µM; in the test with M19-MEL melanoma, 56 µM; in the test on HOP-62 NSCLC, 46.6 µM; in the test with DMS 114 small cell lung, 40.2 µM; in the test on U251 CNS, 45.7 µM.
As for `COc1ccc(N2C(=O)C3c4[nH]c5ccc(F)cc5c4C4CCC(c5ccccc5)CC4C3C2=O)cc1` (centres undefined), the TGI in the test with IGROV1 ovarian is 56.2 µM; in the test on HCT-15 colon, > 100 µM; in the test on OVCAR-4 ovarian, 32.6 µM; in the test on HCC-2998 colon, > 100 µM; in the test with NCI-H226 lung, > 100 µM; in the test with SF-295 CNS it was > 100 µM. Besides, the TGI is 16.5 µM in the test on CCRF-CEM leukemia, 28.1 µM in the test on HOP-62 NSCLC and 27.1 µM in the test with U251 CNS.
